Laboratory results as given in patent US20110039812A1, “N-ALKYLCARBONYL-D-AMINO HYDROXYALKYL ESTER COMPOUNDS AND THEIR USE” (priority 2006, published 2011).

Tests used:
[1] = system: dorsal surface of the tongue; conditions: average for 6 subjects, after 30 seconds; cited from earlier work
oral cavity = experiment: Oral cavity test of tablets placed in the back of the mouth; format: in vivo, human
Description: The NACHE were also tested in the oral cavity using these methods: a) placement of 2 mg of the crystalline chemical on the dorsal surface of the tongue, b) incorporation of 2 mg of NACHE into a rapidly-distintegrating tablet of 60 mg weight, and placement of the tablet on the caudal-dorsal surface of the tongue, c) placement of a 0.3 mL aliquot of a 5 mg/mL solution of a NACHE in a 50% ethanol-distilled water solution, and d) delivery of a 5 mg/mL solution of a NACHE in a 50% ethanol-distilled water solution into the oral cavity using a hand-activated mouth spray dispenser. The tests in the oral cavity were important because many cooling agents used in confectionery and comestibles have disagreeable tastes of bitterness, harshness or burning qualities that limit their utility in such items as candy, mints, mouthwashes, mouth fresheners, and cough syrups.
Tablets of CPS-154 were prepared. To weighed samples of about 200 mg of CPS-154 was added varying amounts of Ludipress® (BASF, Germany) to give CPS-154 concentrations of 2.5, 3. 5, 10 and 10% by wt. The two ingredients were then thoroughly mixed in a mortar and pestle. To this mixture when then added 5 to 7 mL of 10% ethanol −90% distilled water solution. Using an eye dropper or a pipette, fixed volumes of the solution was placed on wax paper and dried under a heat source. The tablets were then sized and weighed.
Using the above formulation methods, three doses of 1, 2 and 4 mg per application were examined. […] The onset effect was usually within 30 seconds of application. […] Also, the effects of menthol were short-lived, on the order 8 to 12 minutes, versus a 20 to 30 minute period or longer.

cough [2] = experiment: Powder on the tongue of two cigar smokers with cough; format: in vivo, human
From the text: Two males, were inveterate cigar smokers consuming 3 to 5 cigars per day. They both had frequent bouts of dry, non-productive, hacking coughs. At night, there were episodes of insomnia characterized by difficulties in breathing, an oppressive pressure on the chest and throat, and subsequent awakening with sensations of choking. During the day, a frequent and persistent sensation was that of tickling, irritative feelings in the back of the throat that led to coughing.
In 10 trials per subject, 2 mg of 92% pure powder of CPS-154 was placed on the mid-portion of the tongue of these two subjects. Both subjects reported relief from the desire to cough within 1 minute after application. Sensations of robust coolness in the back of the throat was noted and lasted for 15 to 20 minutes. Applications of similar amounts of powdered sugar were not effective, but the placebo could be clearly distinguished from the active compound because of the absence of cooling sensations.

skin above the upper lip = experiment: Cooling sensation bioassay: ointment applied to skin above the upper lip; format: in vivo, human
From the text: A reliable place for topical application is the skin above the upper lip (above the vermilion border of the lips), on the philtrum, lateral to the philtrum until the nasolabial folds, and on the lower nostrils (subnasale). This part of the face is known to be densely innervated with cold receptors, second only to the surfaces of the eyeball and anogenitalia. A second location is on or below the malar eminence (cheekbone). The skin above the cheekbone is thicker than above the lips, and therefore has a higher threshold for activation. At both loci, tingling, cool and cold sensations in the skin may be experienced and rated for time of onset and intensity.
The intensity of the subjective skin sensation is rated as 0, 1, 2 or 3 with 0 as no change, 1 as slight coolness, cold, or tingling, 2 as clear-cut signal of coolness, cold, or tingling, and 3 as robust cooling or cold. The intervals for recording sensations are 5 to 10 minutes, until two successive zeroes are obtained. The results (shown in FIG. 1) are averaged values of 4 to 6 separate trials in the same individual. The data are plotted using SigmaPlot (Systat Software, Point Richmond Calif.) and a smoothing function with a negative eponential was used for analysis and statistical fit of the results. […]

[3] = system: asthmatic coughing attacks; experiment: Tablets as needed in a subject with asthma; format: in vivo, human
From the text: A person with a documented 31-year history of asthma attacks volunteered to test one of the compounds of Formula 1. They were extremely sensitive to agents such as tobacco smoke, dust, pollen, odors, down/woolen materials, house cleansing products, pets, and sudden change of air temperature and reacted with violent coughing, mucus secretions, wheezing, choking, and shortness of breath. At the time of this trial, they were taking these medications for their condition: theophylline, Allegra®, Advair®, Intal®, and Singulair®. They were given 20 tablets of CPS-154, synthesized as described in Example 3, and instructed to take one on an as-needed basis.

viral cough = experiment: Tablets as needed in a subject with viral cough; format: in vivo, human; conditions: 2.0 mg tablets as needed
Description: A person has severe allergies and also developed a cough after a cruise trip overseas. Upon visit to a physician, they were diagnosed with a “viral cough” and prescribed codeine in a syrup. They volunteered to try CPS-154 tablets and was supplied with 15 tablets stored in a flip top plastic box, each containing 2.0 mg of CPS-154, in a 4% wt/wt lactose matrix (Ludipress®). The subject was instructed to take one tablet on an as-needed basis, with a preferred interval of 3 to 4 hours between tablets.

cough [4] = experiment: Orally-disintegrating tablet in the back of the mouth, anti-tussive action; format: in vivo; conditions: 40 to 60 mg Ludipress tablet containing 1 to 5 mg
From the text: Especially favored in this invention is the formulation of the NACHE of Formula 1, into an orally-disintegrating tablet.

CC1CCC(C(C)C)C(O)C1 (single isomer, unassigned; (-)) [Menthol, (−)-menthol, reference compound]
Threshold (amount producing cooling sensations on the tongue), average [1]: 0.25 µg | quality and site of cooling sensations (oral cavity; tablets, 2 or 4 mg dose): cooling primarily in the nasopharynx and less in the oral cavity

CC(C)[C@@H]1CC[C@@H](C)C[C@H]1C(=O)N[C@H](C)C(=O)OCCCO [CPS-154, (R)-2-[((1R,2S,5R)-2-isopropyl-5-methyl-cyclohexanecarbonyl)-amino]-propionic acid 3-hydroxy-propyl ester]
time to relief from the desire to cough (cough [2]; 2 mg of 92% pure powder on mid-portion of the tongue, 2 subjects): ≤ 1 min | time the desire to cough was removed (cough [2]; after 8 applications, continued smoking of cigars): at least 3 days | dissolution of tablets in the back of the mouth (oral cavity; Ludipress tablets): dissolved within a matter of seconds | activity in the oral cavity, D-analog versus L-equivalent (oral cavity; tablets): clearly more active than the L-equivalent | onset of cooling effect after application (oral cavity; tablets, 2 or 4 mg dose): ≤ 30 s | quality and site of cooling sensations (oral cavity; tablets, 2 or 4 mg dose): pleasant and robust cooling sensations on the tongue, extending down to the back of throat | duration of action of cooling on the skin of the upper lip (skin above the upper lip; Aquaphor ointment 0.5 and 1% wt/vol, 50 to 80 mg): more than 1 hour | potency / cooling activity on the skin of the upper lip (comparison, FIG. 1) (skin above the upper lip; ointment on upper lip skin): comparable to its alkyl ester analog, CPS-369 | recurrence of asthmatic coughing attacks ([3]; continued use of tablets as needed): have not recurred with any severity for six months | side-effects ([3]; one tablet, asthma subject): did not sense any build up of sputum or other side-effects | effect on cough severity (viral cough): less severe | anti-tussive action (cough [4]): robust anti-tussive action for several hours
